In patent US12419869B2, “Methods of treating multiple sclerosis” (Vanda Pharmaceuticals Inc., priority 2021, dated 2025):
“And” between values parts separate entries of the source, which are not always exact repeats. Equal values may be shown once.

Key:
Format in all cases: in vivo, human
[1] = test system: adult subjects with relapsing MS; assay: Brain MRI lesions (CUAL, Gd+ T1, new/enlarging T2) from baseline to Week 108; conditions: for CUAL mean estimate (Lesions per year): baseline to Week 108, negative binomial regression, Full Analysis Set
Procedure: CUAL are new Gd+T1 lesions plus new or enlarging T2 lesions (without double-counting of lesions).
MRI scans were performed at Visits 2 (Baseline), 10 (Week 60), and 14 (EOT) and at any unscheduled visit (U1, U2, etc.). If applicable, MRI scans also were performed at the corresponding visits in the PTOP (Visits 10A and 14A). Testing at all visits were performed up to 7 days prior to or after the visit date.
MRI variables included the number and volume of new and total Gd+ lesions on T1-weighted MRI scans, number of new and enlarging lesions and lesion volume on T2-weighted MRI, and global measures of loss of brain tissue.
T1-weighted imaging before and after i.v. administration of 0.1 mmol/kg body weight (=0.2 mL/kg) of Gd as well as PD-T2-weighted imaging was performed. Gd may cause nausea and vomiting and in very rare cases allergic reactions that could require immediate anti-anaphylactic therapy (such as steroids, epinephrine/adrenaline, etc.).
Patients (18-55 years) with RMS (expanded disability status scale scores: 0-5.5) were randomized (1:1) to receive ponesimod (PON) 20 mg or teriflunomide (TER) 14 mg for 108 weeks. MRI assessments were: volume of T2 lesions; mean number of new gadolinium-enhancing (Gd+) T1 lesions and new/enlarging T2 lesions; and absence of active MRI lesions at week 108. NEDA-3 status (absence of confirmed relapse, Gd+T1 lesions and new/enlarging T2 lesions on annual MRIs, and 12-week confirmed disability accumulation) was evaluated from baseline to week 108.

[2] = test system: adult subjects with relapsing MS; assay: EDSS, time to first 12-week / 24-week confirmed disability accumulation (CDA); conditions: for Hazard ratio, time to first 12-week CDA (3-month CDP), ponesimod vs teriflunomide: stratified Cox regression
Source text: A 12-week CDA is an increase of at least 1.5 in EDSS for subjects with a baseline EDSS score of 0.0 or an increase of at least 1.0 in EDSS for subjects with a baseline EDSS score of 1.0 to 5.0, or an increase of at least 0.5 in EDSS for subjects with a baseline EDSS score≥5.5 which is to be confirmed after 12 weeks.
All EDSS measurements (with or without relapse, at a scheduled or unscheduled visit) were used to determine the onset of disability accumulation. However, EDSS scores used for confirmation of disability accumulation were obtained at a scheduled visit (i.e., unscheduled visits cannot be used as confirmatory visits) outside any ongoing relapse. In this context, relapse duration is defined as period between start and end dates if available and limited to 90 days from onset if end date is not available or duration is longer than 90 days.
In order to confirm that the EDSS increase is persistent, all EDSS measurements between the onset and the 12-week EDSS confirmation (minus 7-day visit time-window) need to show an increase in EDSS, meeting the criteria for accumulation of disability as defined above.
A 24-week CDA is an increase of at least 1.5 in EDSS for subjects with a baseline EDSS score of 0.0 or an increase of at least 1.0 in EDSS for subjects with a baseline EDSS score of 1.0 to 5.0, or an increase of at least 0.5 in EDSS for subjects with a baseline EDSS score≥5.5 which is to be confirmed after 24 weeks.
The primary endpoint was the annualized relapse rate (ARR) over the study period. Additional outcome measures included: 1) the number of new Gd-enhancing T1 lesions from baseline to Week 108, 2) the number of new or enlarging T2 lesions (without double-counting of lesions) from baseline to Week 108, and 3) the time to 3-month and 6-month confirmed disability progression. A confirmed disability progression was defined as an increase of at least 1.5 in EDSS for patients with a baseline EDSS score of 0, an increase of at least 1.0 in EDSS for patients with a baseline EDSS score of 1.0 to 5.0, or an increase of at least 0.5 in EDSS for patients with a baseline EDSS score at least 5.5, which was confirmed after 3 months and 6 months.

[3] = test system: adult subjects with relapsing MS; assay: Treatment-emergent adverse events and premature treatment discontinuation, phase III study (Study 1); conditions: in vivo
Procedure: A total of 1438 MS patients have received PONVORY at doses of at least 2 mg daily. These patients were included in Study 1 (2-year active-controlled versus teriflunomide 14 mg) [see Clinical Studies (14)] and in a Phase 2 (6-month placebo-controlled) study in patients with MS and the uncontrolled extension studies.

CCC/N=C1\S/C(=C\c2ccc(OC[C@H](O)CO)c(Cl)c2)C(=O)N1c1ccccc1C [Ponesimod, (R)-5-[3-chloro-4-(2,3-dihydroxy-propoxy)-benz[Z]ylidene]-2-([Z]-propylimino)-3-o-tolyl-thiazolidin-4-one]
CUAL mean estimate (Lesions per year) [1]: 1.405 lesions per year
CUAL mean estimate (Lesions per year) ([1]; listed as ponesimod): 1.405 lesions per year
CUAL treatment effect (Rate Ratio) ponesimod vs teriflunomide ([1]; baseline to week 108): 0.444 and 0.44
LS mean difference (PON-TER) in change from baseline in total volume of T2 lesions ([1]; baseline to week 108): −399.2 mm^3
Mean number of new Gd+ T1 lesions per scan / per MRI ([1]; baseline to week 108): 0.18
Mean number of new/enlarging T2 lesions per year ([1]; baseline to week 108): 1.40
Rate ratio, new Gd+ T1 lesions per scan, PON vs TER ([1]; baseline to week 108): 0.42
Rate ratio, new/enlarging T2 lesions per year, PON vs TER ([1]; baseline to week 108): 0.44
Raw mean lesions/year (CUAL) ([1]; baseline to week 108): 1.559 lesions/year
Reduction of number of CUALs compared to teriflunomide 14 mg ([1]; baseline to week 108): 56%
Total number of lesions (CUAL) ([1]; baseline to week 108): 1671
Relative reduction, T1 Gd-enhancing lesions per MRI ([1]; vs teriflunomide 14 mg): 58.5% (p < 0001)
Relative reduction, new or enlarging T2 hyperintense lesions per year ([1]; vs teriflunomide 14 mg): 55.7% (p < 0001)
Odds ratio PON vs TER for absence of new Gd+ T1 lesions ([1]; week 108): 2.18
Odds ratio PON vs TER for absence of new/enlarging T2 lesions ([1]; week 108): 1.71
Proportion of Patients with 3-month Confirmed Disability Progression ([2]; Kaplan-Meier estimates at Week 108): 10.8%
Hazard ratio, time to first 24-week CDA, ponesimod vs teriflunomide ([2]; exploratory): 0.84
Reduction of risk of 12-week CDA compared to teriflunomide 14 mg ([2]; not statistically significant): 17%
Reduction of risk of 24-week CDA compared to teriflunomide 14 mg ([2]; not statistically significant): 16%
Hazard ratio, time to first 12-week CDA (3-month CDP), ponesimod vs teriflunomide [2]: 0.83
Hazard ratio, time to first 12-week CDA (3-month CDP), ponesimod vs teriflunomide ([2]; listed as PONVORY): 0.83 (p = 0.29)
Hazard ratio, time to first 12-week CDA (3-month CDP), ponesimod vs teriflunomide ([2]; listed as ponesimod): 0.83
Subjects with 12-week CDA ([2]; up to EOS): 10.1%
Subjects with 24-week CDA ([2]; up to EOS): 8.1%
Day 1 AESI Atrioventricular block first degree ([3]; human): (0.5) %
Day 1 AESI Bradycardia ([3]; human): (0.7) %
Day 1 AESI Bundle branch block left ([3]; human): (0.2) %
Day 1 AESI Bundle branch block right ([3]; human): (0.2) %
Day 1 AESI Defect conduction intraventricular ([3]; human): (0.4) %
Day 1 AESI Sinus arrhythmia ([3]; human): (0.2) %
Day 1 AESI Sinus bradycardia ([3]; human): (0.2) %
AE leading to discontinuation, SOC Blood and lymphatic system disorders ([3]; human, 2 year): (0.5) %
AE leading to discontinuation, SOC Cardiac disorders ([3]; human, 2 year): (0.2) %
AE leading to discontinuation, SOC Eye disorders ([3]; human, 2 year): (0.9) %
AE leading to discontinuation, SOC Gastrointestinal disorders ([3]; human, 2 year): (0.7) %
AE leading to discontinuation, SOC General disorders and administration site conditions ([3]; human, 2 year): (0.5) %
AE leading to discontinuation, SOC Hepatobiliary disorders ([3]; human, 2 year): (0.5) %
AE leading to discontinuation, SOC Investigations ([3]; human, 2 year): (2.1) %
AE leading to discontinuation, SOC Musculoskeletal and connective tissue disorders ([3]; human, 2 year): (0.2) %
AE leading to discontinuation, SOC Neoplasms benign, malignant and unspecified (incl cysts and polyps) ([3]; human, 2 year): (0.2) %
AE leading to discontinuation, SOC Nervous system disorders ([3]; human, 2 year): (0.4) %
AE leading to discontinuation, SOC Pregnancy, puerperium and perinatal conditions ([3]; human, 2 year): (0.5) %
AE leading to discontinuation, SOC Psychiatric disorders ([3]; human, 2 year): (0.2) %
AE leading to discontinuation, SOC Respiratory, thoracic and mediastinal disorders ([3]; human, 2 year): (1.2) %
AE leading to discontinuation, SOC Skin and subcutaneous tissue disorders ([3]; human, 2 year): (0.2) %
AE leading to discontinuation, SOC Social circumstances ([3]; human, 2 year): (0.4) %
AE leading to discontinuation, SOC Vascular disorders ([3]; human, 2 year): (0.5) %
AESI Effect on heart rate and rhythm (including hypotension) ([3]; human, 2 year): (5.1) %
AESI Non-skin malignancy ([3]; human, 2 year): (0.2) %
AESI Skin malignancy ([3]; human, 2 year): (0.9) %
Discontinuation reason: Physician decision, Adverse event ([3]; human, 2 year): (5.1) %
Discontinuation reason: Pre-specified study treatment discontinuation criteria ([3]; human, 2 year): (2.1) %
Discontinuation reason: Subject decision, Tolerability related ([3]; human, 2 year): (1.4) %
Incidence of basal cell carcinoma ([3]; human, 2 year): 0.4%
Overall rate of infections ([3]; human, 2 year): 54.2%
Subjects discontinued due to AEs or tolerability related reasons ([3]; human, 2 year): 6.5%
Subjects who prematurely discontinued study treatment ([3]; human, 2 year): (16.6) %
Subjects with at least one Drug-Related AE ([3]; human, 2 year): (49.2) %
Subjects with at least one Severe AE ([3]; human, 2 year): (6.9) %
TEAE ALT increased ([3]; human, 2 year): 19.5%
TEAE headache ([3]; human, 2 year): 11.5%
TEAE nasopharyngitis ([3]; human, 2 year): 19.3%
TEAE upper respiratory tract infection ([3]; human, 2 year): 10.6%
Adverse reaction: C-reactive protein increased ([3]; human, 2 years): 2%
Adverse reaction: Cough ([3]; human, 2 years): 4%
Adverse reaction: Dizziness ([3]; human, 2 years): 5%
Adverse reaction: Dyspnea ([3]; human, 2 years): 5%
Adverse reaction: Hepatic transaminase elevation ([3]; human, 2 years): 23%
Adverse reaction: Hypercholesterolemia ([3]; human, 2 years): 2%
Adverse reaction: Hypertension ([3]; human, 2 years): 10%
Adverse reaction: Pain in extremity ([3]; human, 2 years): 4%
Adverse reaction: Pyrexia ([3]; human, 2 years): 2%
Adverse reaction: Somnolence ([3]; human, 2 years): 3%
Adverse reaction: Urinary tract infection ([3]; human, 2 years): 6%
Adverse reaction: Vertigo ([3]; human, 2 years): 2%
Discontinuation reason: Lost to follow-up [3]: (0.4) %
Discontinuation reason: Physician decision [3]: (7.1) %
Discontinuation reason: Physician decision, Lack of efficacy/treatment failure [3]: (0.7) %
Discontinuation reason: Physician decision, Other [3]: (1.2) %
Discontinuation reason: Reason not provided [3]: (0.2) %
Discontinuation reason: Subject decision [3]: (6.9) %
Discontinuation reason: Subject decision, Efficacy related [3]: (1.2) %
Discontinuation reason: Subject decision, Not known [3]: (0.9) %
Discontinuation reason: Subject decision, Other [3]: (3.4) %
